Assay results reported in ChEMBL document CHEMBL1146255, “Synthesis of bisdesmosidic kryptogenyl saponins using the 'random glycosylation' strategy and evaluation of their antitumor activity” (Bioorg Med Chem Lett, 2007).
Blank lines part the entries; values can stand above or below the compound they belong to.

Key:
Details in all cases: Homo sapiens
[1] = test system: HeLa; assay: Antitumor activity against HeLa cells at 10 uM by MTT assay; assay type: functional
[2] = test system: HeLa; assay: Antitumor activity against HeLa cells at 10 nM by MTT assay; assay type: functional
[3] = test system: HeLa; assay: Antitumor activity against HeLa cells by MTT assay; assay type: functional, cell-based
[4] = test system: HeLa; assay: Antitumor activity against HeLa cells at 1 uM by MTT assay; assay type: functional
[5] = test system: HeLa; assay: Antitumor activity against HeLa cells at 0.1 uM by MTT assay; assay type: functional

Compound: C[C@H](CCC(=O)[C@@H](C)[C@H]1C(=O)C[C@H]2[C@@H]3CC=C4C[C@@H](O[C@@H]5OC[C@@H](O)[C@H](O)[C@H]5O)CC[C@]4(C)[C@H]3CC[C@]12C)CO[C@@H]1O[C@H](CO)[C@@H](O)[C@H](O)[C@H]1O
inhibition at 10 µM [1]: 30.9% | inhibition at 0.01 µM [2]: 17.5% | IC50 [3]: > 10 µM | inhibition at 1 µM [4]: 23% | inhibition at 0.1 µM [5]: 19.3%

Compound: C[C@H](CCC(=O)[C@@H](C)[C@H]1C(=O)C[C@H]2[C@@H]3CC=C4C[C@@H](O[C@@H]5O[C@@H](C)[C@H](O)[C@@H](O)[C@H]5O)CC[C@]4(C)[C@H]3CC[C@]12C)CO[C@@H]1O[C@H](CO)[C@@H](O)[C@H](O)[C@H]1O
inhibition at 10 µM [1]: 15.1% | inhibition at 0.01 µM [2]: 0.16% | IC50 [3]: > 10 µM | inhibition at 1 µM [4]: 1.67% | inhibition at 0.1 µM [5]: 1.66%

Compound: C[C@H](CCC(=O)[C@@H](C)[C@H]1C(=O)C[C@H]2[C@@H]3CC=C4C[C@@H](O[C@@H]5OC[C@H](O)[C@H](O)[C@H]5O)CC[C@]4(C)[C@H]3CC[C@]12C)CO[C@@H]1O[C@@H](CO)[C@H](O)[C@@H](O)[C@@H]1O
inhibition at 10 µM [1]: 9.71% | inhibition at 0.01 µM [2]: 3.25% | IC50 [3]: > 10 µM | inhibition at 1 µM [4]: 4.79% | inhibition at 0.1 µM [5]: 3.84%

Compound: C[C@H](CCC(=O)[C@@H](C)[C@H]1C(=O)C[C@H]2[C@@H]3CC=C4C[C@@H](O[C@@H]5O[C@H](CO)[C@@H](O)[C@H](O)[C@H]5O)CC[C@]4(C)[C@H]3CC[C@]12C)CO[C@@H]1OC[C@H](O)[C@H](O)[C@H]1O
inhibition at 10 µM [1]: 4.36% | inhibition at 0.01 µM [2]: 0.87% | IC50 [3]: > 10 µM | inhibition at 1 µM [4]: 3.67% | inhibition at 0.1 µM [5]: 1.05%

Compound: C[C@H](CCC(=O)[C@@H](C)[C@H]1C(=O)C[C@H]2[C@@H]3CC=C4C[C@@H](O[C@@H]5O[C@@H](C)[C@H](O)[C@@H](O)[C@H]5O)CC[C@]4(C)[C@H]3CC[C@]12C)CO[C@@H]1O[C@@H](C)[C@H](O)[C@@H](O)[C@H]1O
inhibition at 10 µM [1]: 26.2% | inhibition at 0.01 µM [2]: 7.19% | IC50 [3]: > 10 µM | inhibition at 1 µM [4]: 21.2% | inhibition at 0.1 µM [5]: 14.3%

Compound: C[C@H](CCC(=O)[C@@H](C)[C@H]1C(=O)C[C@H]2[C@@H]3CC=C4C[C@@H](O[C@@H]5O[C@H](CO)[C@@H](O)[C@H](O)[C@H]5O)CC[C@]4(C)[C@H]3CC[C@]12C)CO[C@@H]1O[C@@H](C)[C@H](O)[C@@H](O)[C@H]1O
inhibition at 10 µM [1]: 10.5% | inhibition at 0.01 µM [2]: 3.42% | IC50 [3]: > 10 µM | inhibition at 1 µM [4]: 9.94% | inhibition at 0.1 µM [5]: 7.16%

Compound: C[C@H](CCC(=O)[C@@H](C)[C@H]1C(=O)C[C@H]2[C@@H]3CC=C4C[C@@H](O[C@@H]5O[C@H](CO)[C@@H](O)[C@H](O)[C@H]5O)CC[C@]4(C)[C@H]3CC[C@]12C)CO[C@@H]1O[C@H](CO)[C@@H](O)[C@H](O)[C@H]1O
inhibition at 10 µM [1]: 3.46% | inhibition at 0.01 µM [2]: 0.46% | IC50 [3]: > 10 µM | inhibition at 1 µM [4]: 2.31% | inhibition at 0.1 µM [5]: 1.78%

Further lines, with some results ahead:

IC50 [3]: 4.25 µM
Compound: C[C@H](CCC(=O)[C@@H](C)[C@H]1C(=O)C[C@H]2[C@@H]3CC=C4C[C@@H](O[C@@H]5OC[C@H](O)[C@H](O)[C@H]5O)CC[C@]4(C)[C@H]3CC[C@]12C)CO[C@@H]1OC[C@H](O)[C@H](O)[C@H]1O
inhibition at 10 µM [1]: 62% | inhibition at 0.01 µM [2]: 0.26% | inhibition at 1 µM [4]: 4.34% | inhibition at 0.1 µM [5]: 1.64%

IC50 [3]: > 10 µM
Compound: C[C@H](CCC(=O)[C@@H](C)[C@H]1C(=O)C[C@H]2[C@@H]3CC=C4C[C@@H](O[C@@H]5O[C@@H](C)[C@H](O)[C@@H](O)[C@H]5O)CC[C@]4(C)[C@H]3CC[C@]12C)CO[C@@H]1OC[C@@H](O)[C@H](O)[C@H]1O
inhibition at 10 µM [1]: 28.5% | inhibition at 0.01 µM [2]: 13.6% | inhibition at 1 µM [4]: 20.7% | inhibition at 0.1 µM [5]: 20.1%

IC50 [3]: > 10 µM
Compound: C[C@@H](CO)CCC(=O)[C@@H](C)[C@H]1C(=O)C[C@H]2[C@@H]3CC=C4C[C@@H](O)CC[C@]4(C)[C@H]3CC[C@]12C
inhibition at 10 µM [1]: 22.3% | inhibition at 0.01 µM [2]: 9.49% | inhibition at 1 µM [4]: 17.3% | inhibition at 0.1 µM [5]: 13.8%

IC50 [3]: > 10 µM
Compound: C[C@H](CCC(=O)[C@@H](C)[C@H]1C(=O)C[C@H]2[C@@H]3CC=C4C[C@@H](O[C@@H]5O[C@H](CO)[C@@H](O)[C@H](O)[C@H]5O)CC[C@]4(C)[C@H]3CC[C@]12C)CO[C@@H]1OC[C@@H](O)[C@H](O)[C@H]1O
inhibition at 10 µM [1]: 24.8% | inhibition at 0.01 µM [2]: 7.95% | inhibition at 1 µM [4]: 14.5% | inhibition at 0.1 µM [5]: 12.8%

IC50 [3]: > 10 µM
Compound: C[C@H](CCC(=O)[C@@H](C)[C@H]1C(=O)C[C@H]2[C@@H]3CC=C4C[C@@H](O[C@@H]5OC[C@@H](O)[C@H](O)[C@H]5O)CC[C@]4(C)[C@H]3CC[C@]12C)CO[C@@H]1OC[C@H](O)[C@H](O)[C@H]1O
inhibition at 10 µM [1]: 30.9% | inhibition at 0.01 µM [2]: 0.68% | inhibition at 1 µM [4]: 10.6% | inhibition at 0.1 µM [5]: 5.45%

IC50 [3]: 8.36 µM
Compound: C[C@H](CCC(=O)[C@@H](C)[C@H]1C(=O)C[C@H]2[C@@H]3CC=C4C[C@@H](O[C@@H]5O[C@@H](C)[C@H](O)[C@@H](O)[C@H]5O)CC[C@]4(C)[C@H]3CC[C@]12C)CO[C@@H]1OC[C@H](O)[C@H](O)[C@H]1O
inhibition at 10 µM [1]: 60.1% | inhibition at 0.01 µM [2]: 1.35% | inhibition at 1 µM [4]: 6.34% | inhibition at 0.1 µM [5]: 6.93%

IC50 [3]: > 10 µM
Compound: CC(=O)OC[C@H](C)CCC(=O)[C@@H](C)[C@H]1C(=O)C[C@H]2[C@@H]3CC=C4CC(OC(=O)c5ccccc5)CC[C@]4(C)[C@H]3CC[C@]12C (stereo not given in full)
inhibition at 10 µM [1]: 18.5% | inhibition at 0.01 µM [2]: 8.33% | inhibition at 1 µM [4]: 11% | inhibition at 0.1 µM [5]: 12.1%

IC50 [3]: > 10 µM
Compound: C[C@H](CCC(=O)[C@@H](C)[C@H]1C(=O)C[C@H]2[C@@H]3CC=C4C[C@@H](O[C@@H]5OC[C@H](O)[C@H](O)[C@H]5O)CC[C@]4(C)[C@H]3CC[C@]12C)CO[C@@H]1OC[C@@H](O)[C@H](O)[C@H]1O
inhibition at 10 µM [1]: 11.8% | inhibition at 0.01 µM [2]: 0.98% | inhibition at 1 µM [4]: 2.84% | inhibition at 0.1 µM [5]: 1.79%

IC50 [3]: > 10 µM
Compound: C[C@H](CCC(=O)[C@@H](C)[C@H]1C(=O)C[C@H]2[C@@H]3CC=C4C[C@@H](O[C@@H]5OC[C@H](O)[C@H](O)[C@H]5O)CC[C@]4(C)[C@H]3CC[C@]12C)CO[C@@H]1O[C@@H](C)[C@H](O)[C@@H](O)[C@H]1O
inhibition at 10 µM [1]: 10.3% | inhibition at 0.01 µM [2]: 6.36% | inhibition at 1 µM [4]: 9.25% | inhibition at 0.1 µM [5]: 7.51%

IC50 [3]: > 10 µM
Compound: C[C@H](CCC(=O)[C@@H](C)[C@H]1C(=O)C[C@H]2[C@@H]3CC=C4C[C@@H](O[C@@H]5OC[C@@H](O)[C@H](O)[C@H]5O)CC[C@]4(C)[C@H]3CC[C@]12C)CO[C@@H]1OC[C@@H](O)[C@H](O)[C@H]1O
inhibition at 10 µM [1]: 17.6% | inhibition at 0.01 µM [2]: 6% | inhibition at 1 µM [4]: 16.3% | inhibition at 0.1 µM [5]: 14.2%
